# Reference: ChEMBL document CHEMBL1201862, “PubChem BioAssay data set” (2004)
# Activity calls are given as the source filed them.
# What was measured:
# [1] = system: Streptococcus sp. 'group A'; experiment: growth inhibition of control SK(-) GAS strain, dose response, counter-screen for streptokinase expression inhibitor project, luminescence, kanamycin, BacTiterGlo, confirmation (AID 1900); assay type: functional, organism-based
# Beta-galactosidase = Beta-galactosidase (Escherichia coli, UniProt Q8VNN2); experiment: PubChem AID 485352; assay type: functional
# Streptokinase A = target: T1, Streptokinase A (Streptococcus pyogenes serotype M1, UniProt P10520); experiment: S. pyogenes streptokinase expression inhibitors, potency, dose response, plasminogen activation absorbance, OD405 (AID 1914); assay type: functional, Streptococcus pyogenes M1 GAS;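 note: secreted streptokinase activity via plasminogen activation per viability signal from cell pellet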
# T1 sequence (P10520 whole entry): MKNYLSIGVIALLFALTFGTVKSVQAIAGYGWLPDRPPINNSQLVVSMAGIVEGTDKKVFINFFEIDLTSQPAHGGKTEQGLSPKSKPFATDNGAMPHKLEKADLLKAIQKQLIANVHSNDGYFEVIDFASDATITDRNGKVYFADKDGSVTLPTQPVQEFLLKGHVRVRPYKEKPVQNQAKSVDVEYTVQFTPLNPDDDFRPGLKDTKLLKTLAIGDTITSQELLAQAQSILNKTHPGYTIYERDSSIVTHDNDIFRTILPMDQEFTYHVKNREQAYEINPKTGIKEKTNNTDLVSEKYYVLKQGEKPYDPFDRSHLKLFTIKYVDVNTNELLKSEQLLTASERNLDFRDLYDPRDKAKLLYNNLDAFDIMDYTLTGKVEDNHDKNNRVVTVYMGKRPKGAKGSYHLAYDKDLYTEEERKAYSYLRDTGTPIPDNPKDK
# Large T antigen = Large T antigen (Simian virus 40, UniProt P03070); assay type: functional, Betapolyomavirus macacae;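 note: Confirmatory-stage PubChem screen for compounds that inhibit SV40 T antigen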
# Sequence of Large T antigen (P03070 whole entry): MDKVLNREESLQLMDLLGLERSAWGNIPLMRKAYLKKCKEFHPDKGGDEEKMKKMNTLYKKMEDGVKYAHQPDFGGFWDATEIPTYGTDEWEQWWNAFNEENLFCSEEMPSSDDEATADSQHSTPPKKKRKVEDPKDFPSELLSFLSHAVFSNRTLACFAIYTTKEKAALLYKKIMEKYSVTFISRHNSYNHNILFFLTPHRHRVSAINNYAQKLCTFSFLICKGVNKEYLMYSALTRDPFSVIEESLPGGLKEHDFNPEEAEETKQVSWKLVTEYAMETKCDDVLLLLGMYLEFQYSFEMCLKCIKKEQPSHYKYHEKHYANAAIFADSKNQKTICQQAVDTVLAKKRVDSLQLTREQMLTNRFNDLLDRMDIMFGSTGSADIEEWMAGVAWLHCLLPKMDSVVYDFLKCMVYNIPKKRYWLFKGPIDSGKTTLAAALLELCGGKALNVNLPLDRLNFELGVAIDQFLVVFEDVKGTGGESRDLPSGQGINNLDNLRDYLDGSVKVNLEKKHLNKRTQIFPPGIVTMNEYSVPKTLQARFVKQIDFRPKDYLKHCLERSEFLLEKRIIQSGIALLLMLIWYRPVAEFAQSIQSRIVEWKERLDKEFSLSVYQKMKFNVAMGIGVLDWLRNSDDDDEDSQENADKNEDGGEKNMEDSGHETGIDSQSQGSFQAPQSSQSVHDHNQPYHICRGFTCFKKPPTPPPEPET
# [2] = target: T2, Type-1 angiotensin II receptor (Homo sapiens, UniProt P30556); experiment: AT1 receptor antagonists, dose response, selectivity assay for APJ receptor antagonist project, cell-based, uHTS hits (AID 463214); assay type: functional;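 note: antagonist potency against angiotensin II stimulated AT1 response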
# T2 sequence (P30556 whole entry): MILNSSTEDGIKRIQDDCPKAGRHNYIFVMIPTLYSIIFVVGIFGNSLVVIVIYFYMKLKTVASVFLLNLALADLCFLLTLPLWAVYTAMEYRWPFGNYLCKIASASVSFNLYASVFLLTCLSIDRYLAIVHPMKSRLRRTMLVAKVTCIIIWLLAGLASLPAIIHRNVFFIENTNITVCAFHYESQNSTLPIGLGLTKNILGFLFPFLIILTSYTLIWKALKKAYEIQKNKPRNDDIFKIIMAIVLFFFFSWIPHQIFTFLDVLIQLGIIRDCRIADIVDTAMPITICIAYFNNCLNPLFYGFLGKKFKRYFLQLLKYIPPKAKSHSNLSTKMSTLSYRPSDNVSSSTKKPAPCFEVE
# [3] = growth suppression of PTEN-null colon cells, dose response, cell-based, HCT116 PTEN knockout (AID 1047); assay type: functional;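 note: HCT116 colon tumor cells with PTEN knocked out; cells exposed to compound for 60 hours before readout; potency for loss of cell viability measured by luminescence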
# [4] = growth suppression of beta-catenin-knockout colon cells, dose response, cell-based, HCT116, human colon tumor (AID 1045); assay type: functional;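 note: HCT116 colon tumor cells with beta catenin knocked out; cells exposed to compound for 60 hours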
# [5] = target: Induced myeloid leukemia cell differentiation protein Mcl-1 (Homo sapiens, UniProt Q07820); assay type: functional
# Streptococcus = experiment: Group A Streptococcus viability loss, dose response, counter-screen for streptokinase expression inhibitor project, luminescence, BacTiterGlo (AID 1915); assay type: functional, organism-based;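 note: potency for reduction of bacterial viability or growth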
# [6] = target: Glucose-6-phosphate 1-dehydrogenase (Homo sapiens, UniProt P11413); experiment: human G6PD enzyme inhibitors, dose response, selectivity assay for P. falciparum G6PD inhibitor project, biochemical, fluorescence (AID 504792); assay type: functional
# Sequence of Glucose-6-phosphate 1-dehydrogenase (P11413 whole entry, the tested form may be a part): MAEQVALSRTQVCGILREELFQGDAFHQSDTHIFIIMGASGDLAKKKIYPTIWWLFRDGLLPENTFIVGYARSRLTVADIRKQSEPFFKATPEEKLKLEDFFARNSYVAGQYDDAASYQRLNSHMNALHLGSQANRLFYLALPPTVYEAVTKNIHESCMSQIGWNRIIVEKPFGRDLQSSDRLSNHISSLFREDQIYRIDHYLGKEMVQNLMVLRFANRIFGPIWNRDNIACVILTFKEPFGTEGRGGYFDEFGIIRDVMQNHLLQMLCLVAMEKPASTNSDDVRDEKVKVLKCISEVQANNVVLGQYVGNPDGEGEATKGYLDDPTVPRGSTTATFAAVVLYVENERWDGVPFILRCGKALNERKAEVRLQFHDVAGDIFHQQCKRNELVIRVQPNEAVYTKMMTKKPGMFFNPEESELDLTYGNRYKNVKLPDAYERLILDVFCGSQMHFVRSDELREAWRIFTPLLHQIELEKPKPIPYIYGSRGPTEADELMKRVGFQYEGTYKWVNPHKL
# CHO = experiment: cytotoxicity in TLR9-MyD88 CHO cells, dose response, cytotoxicity control for TLR9-MyD88 binding inhibitor project, cell-based, luminescence (AID 588339); assay type: functional, hamster; details: Cricetulus griseus;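 note: CHO cells stably coexpressing TLR9 and MyD88 fusions from primary screen; compound exposure lasted 48 hours before viability readout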
# [7] = target: T3, Replicative DNA helicase DnaB (Mycobacterium tuberculosis, UniProt P9WMR3); experiment: DnaB intein splicing inhibitors, dose response, biochemical, cell-free fluorescence (AID 449749); assay type: functional
# T3 sequence (P9WMR3 whole entry): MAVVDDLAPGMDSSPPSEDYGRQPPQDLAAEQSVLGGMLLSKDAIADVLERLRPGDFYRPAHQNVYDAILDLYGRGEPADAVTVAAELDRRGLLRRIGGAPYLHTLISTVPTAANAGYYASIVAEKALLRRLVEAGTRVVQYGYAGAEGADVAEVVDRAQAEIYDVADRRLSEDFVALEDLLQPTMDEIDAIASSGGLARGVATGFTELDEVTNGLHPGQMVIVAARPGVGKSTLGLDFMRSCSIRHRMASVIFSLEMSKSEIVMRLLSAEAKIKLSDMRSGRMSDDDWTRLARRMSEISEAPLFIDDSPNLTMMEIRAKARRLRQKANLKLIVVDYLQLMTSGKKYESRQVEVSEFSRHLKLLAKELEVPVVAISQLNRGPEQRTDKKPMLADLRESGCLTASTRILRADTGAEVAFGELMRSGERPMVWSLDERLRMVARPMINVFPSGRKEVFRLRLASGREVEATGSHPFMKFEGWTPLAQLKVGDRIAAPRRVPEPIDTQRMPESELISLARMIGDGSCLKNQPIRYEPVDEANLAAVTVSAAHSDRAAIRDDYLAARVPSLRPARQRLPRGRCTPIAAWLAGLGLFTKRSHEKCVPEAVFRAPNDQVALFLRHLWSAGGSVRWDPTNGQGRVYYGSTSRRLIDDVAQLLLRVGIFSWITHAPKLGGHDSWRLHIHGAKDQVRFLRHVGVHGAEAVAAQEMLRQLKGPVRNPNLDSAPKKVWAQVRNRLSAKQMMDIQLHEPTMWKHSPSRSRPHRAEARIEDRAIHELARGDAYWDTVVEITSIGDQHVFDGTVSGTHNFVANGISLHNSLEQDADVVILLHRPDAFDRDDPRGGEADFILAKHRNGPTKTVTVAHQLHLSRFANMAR
# Vero = Vero cell cytotoxicity, cytotoxicity control for flavivirus capping enzyme inhibitors (AID 588742); assay type: functional; details: Chlorocebus sabaeus
# Protein RecA = target: T4, Protein RecA (Mycobacterium tuberculosis, UniProt P9WHJ3); experiment: Fluorescence Cell-Free Homogeneous Dose Retest to Identify Inhibitors of RecA-Intein Splicing Activity. [Related pubchem assays (depositor defined):AID2097, AID2223, AID489010, AID492950]; assay type: functional
# T4 sequence (P9WHJ3 whole entry): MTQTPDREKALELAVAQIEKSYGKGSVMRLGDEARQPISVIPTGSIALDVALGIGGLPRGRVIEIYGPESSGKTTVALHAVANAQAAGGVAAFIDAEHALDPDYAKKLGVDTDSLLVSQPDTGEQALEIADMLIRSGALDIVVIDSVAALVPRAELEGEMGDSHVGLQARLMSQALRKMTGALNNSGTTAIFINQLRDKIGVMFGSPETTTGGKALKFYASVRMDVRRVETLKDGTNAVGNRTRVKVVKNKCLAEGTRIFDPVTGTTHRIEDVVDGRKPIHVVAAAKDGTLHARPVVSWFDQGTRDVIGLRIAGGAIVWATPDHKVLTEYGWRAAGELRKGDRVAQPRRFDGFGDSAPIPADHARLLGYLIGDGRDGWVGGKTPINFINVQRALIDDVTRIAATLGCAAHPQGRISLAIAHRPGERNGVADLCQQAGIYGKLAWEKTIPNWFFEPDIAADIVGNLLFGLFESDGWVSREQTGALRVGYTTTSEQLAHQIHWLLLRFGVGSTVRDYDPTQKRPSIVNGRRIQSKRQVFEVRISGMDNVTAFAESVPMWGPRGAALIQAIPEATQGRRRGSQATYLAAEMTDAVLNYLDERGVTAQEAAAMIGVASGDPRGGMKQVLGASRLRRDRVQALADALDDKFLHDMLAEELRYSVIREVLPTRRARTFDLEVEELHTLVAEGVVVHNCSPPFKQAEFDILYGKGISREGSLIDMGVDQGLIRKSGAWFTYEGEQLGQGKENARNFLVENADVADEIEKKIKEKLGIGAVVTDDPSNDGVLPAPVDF
# Beta Lactamase = Beta Lactamase (Pseudomonas aeruginosa, UniProt Q932Y6); experiment: beta-lactamase reporter inhibitor potency, dose response, artefact control for TLR9-MyD88 binding inhibitor project, BLA reporter cells, FRET fluorescence (AID 588341); assay type: cell-based;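 note: cell based assay in CHO-K1 cells stably expressing beta-lactamase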
# Sequence of Beta Lactamase (Q932Y6 whole entry): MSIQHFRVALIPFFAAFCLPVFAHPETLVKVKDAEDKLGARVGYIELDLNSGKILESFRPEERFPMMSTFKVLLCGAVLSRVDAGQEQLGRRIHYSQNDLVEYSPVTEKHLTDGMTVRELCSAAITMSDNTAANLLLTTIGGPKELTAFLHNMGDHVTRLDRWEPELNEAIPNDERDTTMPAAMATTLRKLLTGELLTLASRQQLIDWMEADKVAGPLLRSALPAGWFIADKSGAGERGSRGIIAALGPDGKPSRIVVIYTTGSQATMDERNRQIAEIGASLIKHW
# Genome polyprotein [8] = target: Genome polyprotein (dengue virus type 2, UniProt P29990); experiment: Dengue-2 NS5 methyltransferase inhibitors, primary screen, biochemical, confirmation dose response (AID 588689); assay type: functional
# Sequence of Genome polyprotein (dengue virus type 2, UniProt P29990) (P29990 2492-3391 limits assumed): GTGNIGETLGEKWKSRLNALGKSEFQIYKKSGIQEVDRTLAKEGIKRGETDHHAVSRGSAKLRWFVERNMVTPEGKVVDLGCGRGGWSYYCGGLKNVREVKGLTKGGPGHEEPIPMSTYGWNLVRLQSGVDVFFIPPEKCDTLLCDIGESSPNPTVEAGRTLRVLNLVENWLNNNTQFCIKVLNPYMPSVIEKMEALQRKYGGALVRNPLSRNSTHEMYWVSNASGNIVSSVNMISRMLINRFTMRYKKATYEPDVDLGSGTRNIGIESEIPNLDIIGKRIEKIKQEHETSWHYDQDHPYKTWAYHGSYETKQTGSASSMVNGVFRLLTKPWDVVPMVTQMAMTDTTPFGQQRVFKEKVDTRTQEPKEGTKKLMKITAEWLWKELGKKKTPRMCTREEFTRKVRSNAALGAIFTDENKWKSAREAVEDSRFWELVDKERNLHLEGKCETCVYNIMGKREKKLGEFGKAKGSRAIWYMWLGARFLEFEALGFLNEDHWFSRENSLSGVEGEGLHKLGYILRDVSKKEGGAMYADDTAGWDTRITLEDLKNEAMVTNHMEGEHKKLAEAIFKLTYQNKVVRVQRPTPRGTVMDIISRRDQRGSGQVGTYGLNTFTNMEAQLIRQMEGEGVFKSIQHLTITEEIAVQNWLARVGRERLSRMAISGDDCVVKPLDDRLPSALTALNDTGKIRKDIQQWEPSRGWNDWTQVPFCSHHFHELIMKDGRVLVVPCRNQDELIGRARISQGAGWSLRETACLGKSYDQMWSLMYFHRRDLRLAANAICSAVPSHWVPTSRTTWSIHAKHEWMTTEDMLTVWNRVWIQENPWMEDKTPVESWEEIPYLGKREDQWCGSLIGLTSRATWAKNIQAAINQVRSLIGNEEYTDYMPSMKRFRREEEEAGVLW
# [9] = Shn3 3'UTR reporter inhibitors, dose response, cell-based, Clone20 osteoblasts, firefly luciferase, cherry-picked (AID 624132); assay type: functional;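 note: firefly luciferase luminescence from reporter carrying the Shn3 3'UTR in osteoblasts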
# [10] = HepG2 cell cytotoxicity, dose response, cytotoxicity control for Shn3 inhibitor project, CellTiter-Glo, cherry-picked (AID 624134); assay type: functional, cell-based
# [11] = control 3'UTR Renilla luciferase suppression, dose response, counter-screen for Shn3 inhibitor project, cell-based, Clone20-Shn3RL, cherry-picked (AID 624133); assay type: functional
# [12] = THP-1 cell cytotoxicity, dose response, cytotoxicity control for Vif-APOBEC3G degradation inhibitor project, THP-1 cells (AID 1117359); assay type: functional; details: Human immunodeficiency virus 1, THP-1
# [13] = Vero cell cytotoxicity, dose response, cytotoxicity control for Vif-APOBEC3G degradation inhibitor project, Vero cells (AID 1117358); assay type: functional; details: Human immunodeficiency virus 1, Vero
# Cytochrome P450 2C9 = Cytochrome P450 2C9 (Homo sapiens, UniProt P11712)
# Sequence of Cytochrome P450 2C9 (P11712 whole entry): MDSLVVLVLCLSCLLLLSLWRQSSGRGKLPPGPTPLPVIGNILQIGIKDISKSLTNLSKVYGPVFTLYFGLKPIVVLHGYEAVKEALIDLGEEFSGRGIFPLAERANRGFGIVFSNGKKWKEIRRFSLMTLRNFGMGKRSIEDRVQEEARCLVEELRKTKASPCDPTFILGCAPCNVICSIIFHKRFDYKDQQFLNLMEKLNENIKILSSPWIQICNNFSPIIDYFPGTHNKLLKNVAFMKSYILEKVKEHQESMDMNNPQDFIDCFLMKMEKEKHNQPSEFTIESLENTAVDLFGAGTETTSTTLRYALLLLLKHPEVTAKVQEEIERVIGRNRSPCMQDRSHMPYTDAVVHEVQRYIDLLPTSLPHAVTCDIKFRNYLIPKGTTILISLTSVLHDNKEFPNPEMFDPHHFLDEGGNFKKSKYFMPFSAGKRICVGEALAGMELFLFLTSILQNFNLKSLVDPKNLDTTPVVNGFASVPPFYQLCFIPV
# Genome polyprotein [14] = target: Genome polyprotein (Hepatitis C virus, UniProt Q2Q167); experiment: HCV core protein dimerization inhibitors, dose response, biochemical, TR-FRET (AID 2159); design: species or system Hepacivirus hominis;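 note: blocks dimerization of HCV core protein measured by TR-FRET between tagged core106 pairs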
# Major prion protein = Major prion protein (Homo sapiens, UniProt P04156); assay type: functional, cell-based
# Estrogen receptor = target: T5, Estrogen receptor (Homo sapiens, UniProt P03372);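 note: potency for inhibiting coactivator peptide recruitment to the receptor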
# T5 sequence (P03372 whole entry): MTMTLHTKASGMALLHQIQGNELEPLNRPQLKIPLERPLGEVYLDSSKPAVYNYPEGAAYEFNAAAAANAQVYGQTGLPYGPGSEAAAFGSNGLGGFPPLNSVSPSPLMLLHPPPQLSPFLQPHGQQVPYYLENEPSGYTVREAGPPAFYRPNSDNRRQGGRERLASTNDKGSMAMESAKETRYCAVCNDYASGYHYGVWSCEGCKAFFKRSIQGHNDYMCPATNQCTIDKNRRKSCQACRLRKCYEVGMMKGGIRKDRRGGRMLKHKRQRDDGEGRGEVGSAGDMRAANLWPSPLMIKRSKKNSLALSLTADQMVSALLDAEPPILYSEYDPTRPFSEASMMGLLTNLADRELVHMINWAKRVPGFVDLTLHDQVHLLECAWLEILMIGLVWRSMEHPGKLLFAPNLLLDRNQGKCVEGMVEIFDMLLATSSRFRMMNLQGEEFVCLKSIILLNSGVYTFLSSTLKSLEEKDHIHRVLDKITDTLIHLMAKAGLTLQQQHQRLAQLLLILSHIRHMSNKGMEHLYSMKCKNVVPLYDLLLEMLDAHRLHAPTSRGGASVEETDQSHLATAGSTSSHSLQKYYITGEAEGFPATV
# Estrogen receptor beta [15] = target: T6, Estrogen receptor beta (Homo sapiens, UniProt Q92731);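 note: recombinant ER-beta bound to coactivator SRC1 peptide in presence of estradiol agonist; inhibitors block coactivator peptide binding and lower the FRET signal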
# T6 sequence (Q92731 whole entry): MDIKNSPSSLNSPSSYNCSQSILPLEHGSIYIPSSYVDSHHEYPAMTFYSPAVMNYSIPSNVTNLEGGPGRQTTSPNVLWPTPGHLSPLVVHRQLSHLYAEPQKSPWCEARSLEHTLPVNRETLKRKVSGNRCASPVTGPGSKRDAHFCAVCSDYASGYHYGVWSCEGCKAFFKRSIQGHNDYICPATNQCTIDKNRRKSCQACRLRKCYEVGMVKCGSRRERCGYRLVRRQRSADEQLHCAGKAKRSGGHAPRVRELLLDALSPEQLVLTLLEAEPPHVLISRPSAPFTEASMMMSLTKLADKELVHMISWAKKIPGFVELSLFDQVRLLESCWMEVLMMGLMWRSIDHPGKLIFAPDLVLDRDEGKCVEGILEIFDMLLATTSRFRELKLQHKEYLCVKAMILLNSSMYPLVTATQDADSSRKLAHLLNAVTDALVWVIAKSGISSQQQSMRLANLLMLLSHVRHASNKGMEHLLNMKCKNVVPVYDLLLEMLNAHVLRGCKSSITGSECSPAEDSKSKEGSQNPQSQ
# Estrogen receptor beta [16] = target: T6, Estrogen receptor beta; experiment: ERβ–SRC-3 coactivator interaction inhibitors, confirmation, orthogonal assay, biochemical, ELISA, streptavidin-HRP readout (AID 1060)
# Cytochrome P450 2C19 = Cytochrome P450 2C19 (Homo sapiens, UniProt P33261); experiment: qHTS Assay for Inhibitors and Substrates of Cytochrome P450 2C19. [Related pubchem assays: 410 ]; assay type: ADME; details: read-out: Potency
# Sequence of Cytochrome P450 2C19 (P33261 whole entry): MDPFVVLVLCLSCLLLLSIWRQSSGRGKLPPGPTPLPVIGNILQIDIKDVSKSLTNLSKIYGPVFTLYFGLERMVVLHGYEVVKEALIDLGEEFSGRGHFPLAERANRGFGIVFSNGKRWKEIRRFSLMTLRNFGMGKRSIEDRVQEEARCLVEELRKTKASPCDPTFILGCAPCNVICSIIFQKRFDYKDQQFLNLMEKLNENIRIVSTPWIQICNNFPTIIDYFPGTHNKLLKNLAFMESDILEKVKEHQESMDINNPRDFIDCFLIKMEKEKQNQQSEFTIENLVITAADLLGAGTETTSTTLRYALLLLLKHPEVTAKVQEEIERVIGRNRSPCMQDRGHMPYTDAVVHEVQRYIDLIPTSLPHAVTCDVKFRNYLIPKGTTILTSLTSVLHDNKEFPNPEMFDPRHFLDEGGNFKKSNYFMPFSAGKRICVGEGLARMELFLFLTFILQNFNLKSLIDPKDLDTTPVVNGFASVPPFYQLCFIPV
# Cytochrome P450 2D6 = Cytochrome P450 2D6 (Homo sapiens, UniProt P10635); experiment: qHTS Assay for Inhibitors and Substrates of Cytochrome P450 2D6. [Related pubchem assays: 410 ]; assay type: ADME; details: read-out: Potency
# Cytochrome P450 3A4 = Cytochrome P450 3A4 (Homo sapiens, UniProt P08684); details: Potency;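 note: confirmatory qHTS run detecting inhibitors and substrates of CYP3A4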
# Sequence of Cytochrome P450 3A4 (P08684 whole entry): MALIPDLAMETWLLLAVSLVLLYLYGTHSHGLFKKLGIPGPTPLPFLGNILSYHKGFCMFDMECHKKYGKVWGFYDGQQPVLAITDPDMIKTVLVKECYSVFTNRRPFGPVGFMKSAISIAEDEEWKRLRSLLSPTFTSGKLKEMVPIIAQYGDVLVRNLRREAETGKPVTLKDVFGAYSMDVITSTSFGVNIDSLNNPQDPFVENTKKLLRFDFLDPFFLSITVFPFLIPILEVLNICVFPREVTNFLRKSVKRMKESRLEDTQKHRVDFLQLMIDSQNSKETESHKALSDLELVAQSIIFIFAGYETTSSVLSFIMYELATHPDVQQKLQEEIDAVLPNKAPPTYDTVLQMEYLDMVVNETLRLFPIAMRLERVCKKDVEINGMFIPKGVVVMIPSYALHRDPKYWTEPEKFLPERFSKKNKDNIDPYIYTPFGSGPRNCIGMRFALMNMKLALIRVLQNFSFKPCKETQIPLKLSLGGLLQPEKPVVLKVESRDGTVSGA
# [17] = target: Mitogen-activated protein kinase 10 (Homo sapiens, UniProt P53779); experiment: Dose response biochemical screening assay for inhibitors of c-Jun N-Terminal Kinase 3 (JNK3). [Related pubchem assays: 746 ]
# Sequence of Mitogen-activated protein kinase 10 (P53779 whole entry): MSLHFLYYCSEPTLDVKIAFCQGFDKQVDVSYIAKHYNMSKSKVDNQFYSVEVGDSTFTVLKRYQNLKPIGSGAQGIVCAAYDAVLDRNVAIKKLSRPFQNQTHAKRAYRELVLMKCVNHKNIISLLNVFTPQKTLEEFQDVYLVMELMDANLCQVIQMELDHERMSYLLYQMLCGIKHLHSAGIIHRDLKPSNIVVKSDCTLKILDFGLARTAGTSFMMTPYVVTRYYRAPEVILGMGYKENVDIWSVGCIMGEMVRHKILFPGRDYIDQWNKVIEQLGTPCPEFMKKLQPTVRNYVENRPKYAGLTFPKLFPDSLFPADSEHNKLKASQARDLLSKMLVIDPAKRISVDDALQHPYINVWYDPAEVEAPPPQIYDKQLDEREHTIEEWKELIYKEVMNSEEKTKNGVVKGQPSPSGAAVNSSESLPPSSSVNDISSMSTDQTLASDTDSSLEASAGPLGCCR
# Danio rerio = experiment: In Vivo Angiogenesis Dose-Response Confirmation. [Related pubchem assays: 732 (Assay preceding this confirmatory assay.)]; assay type: functional, organism-based
smiles,measurement,setting,value
O=[N+]([O-])c1c(NCCO)cc(Sc2nc3ccccc3s2)c2nonc12,EC50,[1],2.73 µM (active)
same,EC50,Beta-galactosidase,> 40 µM (inactive)
same,EC50,Streptokinase A,> 150 µM (not active)
same,IC50,Large T antigen,21.2 µM (active)
same,IC50,[2],1.9 µM (active)
same,EC50,[3],11.1 µM (active)
same,EC50,[4],10.7 µM (active)
same,IC50,[5],11.1 µM (not active)
same,EC50,Streptococcus,3.39 µM (active)
same,IC50,[6],> 80 µM (inactive)
same,IC50,CHO,1.94 µM (active)
same,AC50,[7],1.05 µM (active)
same,CC50,Vero,32.9 µM (active)
same,EC50,Protein RecA,0.722 µM (active)
same,IC50,Beta Lactamase,9.17 µM (active)
same,IC50,Genome polyprotein [8],75.8 µM (active)
same,AC50,[9],1.64 µM (active)
same,AC50,[10],32.1 µM (active)
same,AC50,[11],10.7 µM (active)
same,CC50,[12],22.9 µM (active)
same,CC50,[13],> 40 µM (active)
same,AC50,Cytochrome P450 2C9,0.631 µM (inconclusive)
CCOC(=O)c1sc(NC(=S)NC(=O)C2CCCC2)cc1C,IC50,Genome polyprotein [14],> 49.8 µM (not active)
same,IC50,Major prion protein,5.29 µM (active)
same,IC50,cells,> 138 µM (inactive)
O=C(CSc1nc2scc(-c3ccco3)c2c(=O)n1-c1ccccc1)NCC1CCCO1 (configuration not stated),IC50,Estrogen receptor,30.1 µM (not active)
same,IC50,Estrogen receptor beta [15],22.1 µM (active)
same,IC50,Estrogen receptor beta [16],102 µM (not active)
COC(=O)N1CCc2cc(OC)c(OC)cc2C1Cc1ccc(OC)cc1 (configuration not stated),AC50,Cytochrome P450 2C19,3.98 µM (inconclusive)
same,AC50,Cytochrome P450 2D6,3.16 µM (inconclusive)
same,AC50,Cytochrome P450 3A4,3.98 µM (inconclusive)
Oc1c2nc3cccc(Cl)c3c-2ncn1Cc1ccncc1,IC50,[17],> 93.1 µM (not active)
O=C1Nc2ccccc2/C1=C1/Nc2ccc(Br)cc2/C1=N\OCCN1CCNCC1,IC50,Danio rerio,> 30 µM (not active)
c1ccc(-c2onc3cc4c(cc23)OCCO4)cc1,IC50,[17],50.1 µM (not active)
ONC1c2cc(Cl)ccc2-c2c(Cl)cc(Cl)cc21 (configuration not stated),IC50,Danio rerio,< 0.3 µM (not active)
c1ccc(Cc2nnc3sc(-c4ccco4)nn23)cc1,IC50,Estrogen receptor beta [15],11.4 µM (active)
same,IC50,Estrogen receptor beta [16],15.2 µM (not active)
